Source: patent US20240252488A1 (KOREA RESEARCH INSTITUTE OF CHEMICAL TECHNOLOGY, priority 2020, published 2024)

Columns and labels:
FADD−/− Jurkat cells = experiment: Necroptosis inhibition assay, TNF-α-induced necroptosis (CellTiter-Glo 2.0); type: cell-based, human; conditions: TNF-α 15 ng/mL; for Necroptosis inhibition assay (Rescue %) 1 μM: compound 1 μM; for Necroptosis inhibition assay (Rescue %) 10 μM: compound 10 μM
Method in brief: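 Tested at three fixed concentrations (0.1, 1, 10 μM final) with a 30-minute room-temperature preincubation ahead of 15 ng/mL TNF-α challenge lasting 20 to 24 hours. Inhibition rate and cytotoxicity derive from ATP luminescence.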

MLKL [1] = target: T1, MLKL (Homo sapiens, UniProt Q8NB16); experiment: MLKL degradation assay in HepG2 cell line (western blot); type: cell-based; design: endogenous in cells; host or cells: HepG2 or HaCaT; conditions: cell line not given; for Degradation assay (Degradation %) 10 μM: compound 10 μM; for Degradation assay (Degradation %) 1 μM: compound 1 μM
T1 sequence (Q8NB16 1-471): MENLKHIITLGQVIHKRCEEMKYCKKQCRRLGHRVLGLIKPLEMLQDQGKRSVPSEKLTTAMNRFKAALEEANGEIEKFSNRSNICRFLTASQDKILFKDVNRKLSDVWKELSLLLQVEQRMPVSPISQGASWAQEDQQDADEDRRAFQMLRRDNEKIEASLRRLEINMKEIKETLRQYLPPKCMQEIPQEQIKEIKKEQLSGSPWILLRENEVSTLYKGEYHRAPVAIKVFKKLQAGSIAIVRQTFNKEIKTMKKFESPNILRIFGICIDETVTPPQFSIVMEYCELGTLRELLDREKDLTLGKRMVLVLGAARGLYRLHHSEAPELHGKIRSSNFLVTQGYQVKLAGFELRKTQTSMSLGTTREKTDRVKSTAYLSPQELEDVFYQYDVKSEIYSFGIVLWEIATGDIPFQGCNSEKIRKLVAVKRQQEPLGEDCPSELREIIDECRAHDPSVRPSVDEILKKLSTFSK
Method in brief: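 Degradation is judged from MLKL band intensity on immunoblots of HepG2 lysates taken after 20-24 hours of compound at final 1 or 10 μM.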

MLKL [2] = target: T1, MLKL; experiment: Measurement of binding affinity with MLKL receptor (competitive binding assay, Kd); design: made in house; host or cells: HEK 293 cell line (T7 phage in E. coli BL21-derived host is also described)
Method in brief: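 HEK 293-expressed, DNA-tagged MLKL; ligand beads blocked with biotin and SeaBlock/1% BSA/0.05% Tween 20/1 mM DTT buffer. Cpd from 111× DMSO stock, 0.9% DMSO final. Eluted kinase by qPCR → Kd.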

| SMILES | Necroptosis inhibition assay (Rescue %) 1 μM (FADD−/− Jurkat cells) [%] | Necroptosis inhibition assay (Rescue %) 10 μM (FADD−/− Jurkat cells) [%] | Degradation assay (Degradation %) 10 μM (MLKL [1]) [%] | Kd (MLKL [2]) [nM] | Degradation assay (Degradation %) 1 μM (MLKL [1]) [%] | Necroptosis inhibition assay (Rescue %) 1 μM (FADD−/− Jurkat cells; FADD−/− Jurkat cells) [%] | Necroptosis inhibition assay (Rescue %) 10 μM (FADD−/− Jurkat cells; FADD−/− Jurkat cells) [%] |
| --- | --- | --- | --- | --- | --- | --- | --- |
| Nc1ncc(-c2cnn(C3CCN(C(=O)CCCCCNC(=O)CNc4cccc5c4C(=O)N(C4CCC(=O)NC4=O)C5=O)CC3)c2)nc1C(=O)O[C@@H](C(=O)Nc1ccc(F)cc1)c1ccccc1 (stereo partly drawn) [TDH-124, (R)-2-((4-fluorophenyl)amino)-2-oxo-1-phenylethyl 3-amino-6-(1-(1-(6-(2-((2-(2,6-dioxopiperidin-3-yl)-1,3-dioxoisoindolin-4-yl)amino)acetamido)hexanoyl)piperidin-4-yl)-1H-pyrazol-4-yl)pyrazine-2-carboxylate] | 21.88 | 27.22 | 8.02 | 12 |  |  |  |
| Nc1ncc(-c2cnn(C3CCN(CCCN4CCN(c5ccc6c(c5)C(=O)N(C5CCC(=O)NC5=O)C6=O)CC4)CC3)c2)nc1C(=O)OC(C(=O)Nc1ccc(F)cc1)c1ccccc1 (stereo not shown) [TDH-246, 2-((4-fluorophenyl)amino)-2-oxo-1-phenylethyl 3-amino-6-(1-(1-(3-(4-(2-(2,6-dioxopiperidin-3-yl)-1,3-dioxoisoindolin-5-yl)piperazin-1-yl)propyl)piperidin-4-yl)-1H-pyrazol-4-yl)pyrazine-2-carboxylate] | 60.97 | 26.97 | 46.78 | 3.3 | 66.35 |  |  |
| Nc1ncc(-c2cnn(C3CCN(CCCN4CCN(C(=O)c5ccc6c(N7CCC(=O)NC7=O)coc6c5)CC4)CC3)c2)nc1C(=O)O[C@@H](C(=O)Nc1ccc(F)cc1)c1ccccc1 [TDH-551, (R)-2-((4-fluorophenyl)amino)-2-oxo-1-phenylethyl 3-amino-6-(1-(1-(3-(4-(3-(2,4-dioxotetrahydropyrimidin-1(2H)-yl)benzofuran-6-carbonyl)piperazin-1-yl)propyl)piperidin-4-yl)-1H-pyrazol-4-yl)pyrazine-2-carboxylate] |  |  | 83.80 | 0.3 | 88.03 | 40.61 | 10.85 |
| Nc1ncc(-c2cnn(C3CCN(C4CC5(CCN(CC6CCN(C(=O)c7ccc8c(c7)CN(C7CCC(=O)NC7=O)C8=O)CC6)CC5)C4)CC3)c2)nc1C(=O)O[C@@H](C(=O)Nc1ccc(F)cc1)c1ccccc1 (stereo partly drawn) [TDH-548, (R)-2-((4-fluorophenyl)amino)-2-oxo-1-phenylethyl 3-amino-6-(1-(1-(7-((1-(2-(2,6-dioxopiperidin-3-yl)-1-oxoisoindoline-5-carbonyl)piperidin-4-yl)methyl)-7-azaspiro[3.5]nonan-2-yl)piperidin-4-yl)-1H-pyrazol-4-yl)pyrazine-2-carboxylate] |  |  | 85.68 | 0.19 | 89.05 | 64.86 | 31.41 |
| Nc1ncc(-c2cnn(C3CCN(C(=O)COC4CCN(c5ccc6c(c5)C(=O)N(C5CCC(=O)NC5=O)C6=O)CC4)CC3)c2)nc1C(=O)O[C@@H](C(=O)Nc1ccc(F)cc1)c1ccccc1 (stereo partly drawn) [TDH-400, (R)-2-((4-fluorophenyl)amino)-2-oxo-1-phenylethyl 3-amino-6-(1-(1-(2-((1-(2-(2,6-dioxopiperidin-3-yl)-1,3-dioxoisoindolin-5-yl)piperidin-4-yl)oxy)acetyl)piperidin-4-yl)-1H-pyrazol-4-yl)pyrazine-2-carboxylate] | 27.80 | 28.44 | 74.77 | 4.4 | 82.22 |  |  |
| Nc1ncc(-c2cnn(C3CCN(CCCN4CCN(C(=O)COc5ccc6nnn(C7CCC(=O)NC7=O)c(=O)c6c5)CC4)CC3)c2)nc1C(=O)O[C@@H](C(=O)Nc1ccc(F)cc1)c1ccccc1 (stereo partly drawn) [TDH-370, (R)-2-((4-fluorophenyl)amino)-2-oxo-1-phenylethyl 3-amino-6-(1-(1-(3-(4-(2-((3-(2,6-dioxopiperidin-3-yl)-4-oxo-3,4-dihydrobenzo[d][1,2,3]triazin-6-yl)oxy)acetyl)piperazin-1-yl)propyl)piperidin-4-yl)-1H-pyrazol-4-yl)pyrazine-2-carboxylate] | 52.00 | 24.38 | 85.83 | 0.28 | 91.76 |  |  |
| Nc1ncc(-c2cnn(C3CCN(C[C@H]4CC[C@H](CNc5cccc6c5C(=O)N(C5CCC(=O)NC5=O)C6=O)CC4)CC3)c2)nc1C(=O)O[C@@H](C(=O)Nc1ccc(F)cc1)c1ccccc1 (stereo partly drawn) [TDH-351, (R)-2-((4-fluorophenyl)amino)-2-oxo-1-phenylethyl 3-amino-6-(1-(1-(((1r,4r)-4-(((2-(2,6-dioxopiperidin-3-yl)-1,3-dioxoisoindolin-4-yl)amino)methyl)cyclohexyl)methyl)piperidin-4-yl)-1H-pyrazol-4-yl)pyrazine-2-carboxylate] | 0.74 | 3.39 | 24.61 | 6.1 | 62.4 |  |  |
| Nc1ncc(-c2cnn(C3CCN(CCOC4CCN(C(=O)C5CCN(c6cccc7c6C(=O)N(C6CCC(=O)NC6=O)C7=O)CC5)CC4)CC3)c2)nc1C(=O)OC(C(=O)Nc1ccc(F)cc1)c1ccccc1 (stereo not shown) [TDH-247, 2-((4-fluorophenyl)amino)-2-oxo-1-phenylethyl 3-amino-6-(1-(1-(2-((1-(1-(2-(2,6-dioxopiperidin-3-yl)-1,3-dioxoisoindolin-4-yl)piperidine-4-carbonyl)piperidin-4-yl)oxy)ethyl)piperidin-4-yl)-1H-pyrazol-4-yl)pyrazine-2-carboxylate] | 40.99 | 33.69 | 45.04 | 4.6 | 64.32 |  |  |
| Nc1ncc(-c2cnn(C3CCN(CCOC4CCN(C(=O)c5cccc(C(=O)NC6CCC(=O)NC6=O)c5)CC4)CC3)c2)nc1C(=O)O[C@@H](C(=O)Nc1ccc(F)cc1)c1ccccc1 (stereo partly drawn) [TDH-545, (R)-2-((4-fluorophenyl)amino)-2-oxo-1-phenylethyl 3-amino-6-(1-(1-(2-((1-(3-((2,6-dioxopiperidin-3-yl)carbamoyl)benzoyl)piperidin-4-yl)oxy)ethyl)piperidin-4-yl)-1H-pyrazol-4-yl)pyrazine-2-carboxylate] |  |  | 74.02 | 0.28 | 65.64 | 32.16 | 41.07 |
| Nc1ncc(-c2cnn(C3CCN(CCC4CCN(c5ccc6nnn(C7CCC(=O)NC7=O)c(=O)c6c5)CC4)CC3)c2)nc1C(=O)OC(C(=O)Nc1ccc(F)cc1)c1ccccc1 (stereo not shown) [TDH-295, 2-((4-fluorophenyl)amino)-2-oxo-1-phenylethyl 3-amino-6-(1-(1-(2-(1-(3-(2,6-dioxopiperidin-3-yl)-4-oxo-3,4-dihydrobenzo[d][1,2,3]triazin-6-yl)piperidin-4-yl)ethyl)piperidin-4-yl)-1H-pyrazol-4-yl)pyrazine-2-carboxylate] | 63.46 | 37.73 | 57.99 | 8.1 | 70.94 |  |  |
